Laboratory results as given in patent publication US20230346827A1 (priority 2020, published 2023).

How the values were obtained:
[1] = tested on: Human umbilical vein endothelial cells (HUVECs); assay: Gene expression array and pathway analysis, HUVECs, LMW-DS 0.01 mg/ml 48 h; assay type: cell-based; details: for number of genes: abolished nutrient effect / number of genes: total / number of genes: enhanced response to nutrients / number of genes: not different from control / Activation z-score / Predicted activation state relative D2 control: HUVECs; for Activation z-score / Predicted activation state relative D2 control: D2 LMW-DS treatment
Method: For each cell line, n=8 × 25 cm^2 culture flasks were set up. Two flasks were harvested for each cell type on the day of treatment (24 hours after seeding). This represents the Day0 time point. From the remaining flasks, three flasks were treated with Control Medium and three were treated with Culture Medium (CM) containing LMW-DS to give a final concentration of 0.01 mg/ml. Cells from the treated flasks were collected after 48 hours. Therefore the collected data represent (a) untreated cells (Day0 Controls and Day2 Controls) and (b) cells treated with LMW-DS (ILB®, Tikomed AB, Viken, Sweden, WO 2016/076780) for 48 hours (Day2 LMW-DS treated).
Medium 200 + Large Vessel Endothelial Supplement (M200+LVES) additive (1:50) was prepared and pre-warmed to 37° C. Cells were thawed in a 37° C. water bath for no longer than 2 min and gently transferred into a 50 ml tube containing 20 ml Dulbecco’s Modified Eagle Medium, Nutrient Mixture F-12 (DMEM-F12). The cell suspension was mixed by inverting the tube carefully twice. Cells were spun at 400 × g for 10 minutes. Supernatant removed and cells were re-suspended in 10 ml of culture media (M200+LVES additive).
Cells were counted with the Cellometer. 1,000,000 cells/flask were seeded in 25 cm^2 flasks (n=8) and medium was topped up to a total of 5 ml per flask. Cells were incubated at 37° C. with 5% CO2. Cells were allowed to settle for 24 hours before LMW-DS treatment.
LMW-DS was provided at a stock concentration of 20 mg/ml and was kept in a temperature monitored refrigerator at 4° C. A fresh 100x LMW-DS stock (1.0 mg/ml) was prepared in sterile DMEM-F12. The concentrated drug stock was sterile filtered and added to the respective culture media (19.6 ml CM and 0.4 ml LMW-DS stock solution). The Control was made using 19.6 ml CM and 0.4 ml of DMEM-F12. LMW-DS and CM were added to the respective flasks (5 ml each) to reach the 0.01 mg/ml concentration of LMW-DS in each dish with a total of 10 ml CM each.
CM was aspirated into a clean and labelled 15 ml Falcon tube. The flasks (without culture medium) were placed into the -80° C. freezer for 30 minutes. The CM in the Falcon tubes was spun at 3000 x g for 5 minutes. Supernatant was removed and the small pellet was re-suspended in 2.5 ml Trizol:Water (4:1) solution at room temperature (RT, ~22° C.).
Two aliquots of 1 ml lysate were removed from each sample and 200 µl of chloroform was added to each (0.2 ml of chloroform per 1 ml of TRIzol Reagent used during the cell lysis step) and the tube was shaken vigorously. Samples were stored at RT for 2-3 minutes and subsequently centrifuged at 12,000 x g for 15 minutes at 4° C.
The RNA was precipitated from the aqueous phase by adding an equal amount of 100% ethanol. The precipitated RNA was fixed onto a Spin Cartridge, washed twice and dried. The RNA was eluted in 50 µl warm RNase-Free Water. The amount and quality of the purified RNA was measured by Nanodrop. The RNA was stored at -80° C. before transfer to Source Bioscience for Array analysis.
The expression data were downloaded into separate files for each cell line. The ‘Background corrected’ expression is the data from the “gProcessedSignal” of the arrays that is the result of the background signal extracted from the actual signal of the relevant probe. This is the most often used variable in array analysis. The background corrected signal was log2 transformed for all samples for statistical analysis. To reduce the false discovery rate in the samples, the signals that were below ‘expression level’ were removed. The ‘below expression’ level was set at 5 for the log2 transformed expression values.
Based on the expression pattern of the Control probes on each array it was decided to carry out Median Centering for all arrays before analysis to reduce the variability of the results. […]

[2] = tested on: human PBMC; assay: Stimulated IL-6 release from human PBMC (ELISA); assay type: cell-based; details: 24 h
Method: Peripheral blood mononuclear cells (PBMC) were isolated from healthy donors through Ficoll-Paque PLUS (GE Healthcare; 11778538) density centrifugation. PBMC were cultured at 2×10^5 cells/well in the absence (unstimulated PBS vehicle controls) or presence of stimulation (LPS, peptidoglycan, pokeweed mitogen, PHA-L, CpG + IL-15, or Cytostim) in the absence (vehicle) or presence of LMW-DS (Tikomed AB, Viken, Sweden, WO 2016/076780) at three concentrations; 60 µg/ml, 200 µg/ml and 600 µg/ml for 24 hours at 37° C., 5% CO2. Following centrifugation, cell culture supernatants were removed and stored at -20° C. awaiting analysis for IL-6 by ELISA. Levels of IL-6 were quantified in the supernatant by ELISA (R&D systems; DY206) according to manufacturer’s instructions.

Substance: sodium salt of dextran sulfate [LMW-DS]
- genes regulating cell attachment (of 197) differentially regulated [1]: none
- number of differentially expressed genes ([1]; D0 control to D2 LMW-DS treated): 1779
- number of differentially expressed genes ([1]; D2 control to D2 LMW-DS treated): 76
- number of genes: abolished nutrient effect ([1]; no effect): 67
- number of genes: total ([1]; no effect): 67
- number of genes: abolished nutrient effect ([1]; significant downregulation): 4
- number of genes: enhanced response to nutrients ([1]; significant downregulation): 120
- number of genes: not different from control ([1]; significant downregulation): 167
- number of genes: total ([1]; significant downregulation): 291
- number of genes: abolished nutrient effect ([1]; significant upregulation): 11
- number of genes: enhanced response to nutrients ([1]; significant upregulation): 229
- number of genes: not different from control ([1]; significant upregulation): 1326
- number of genes: total ([1]; significant upregulation): 1566
- number of genes: abolished nutrient effect ([1]; total): 82
- number of genes: enhanced response to nutrients ([1]; total): 349
- number of genes: not different from control ([1]; total): 1493
- number of genes: total ([1]; total): 1924
- modulation of the effects of oxidative stress on mitochondria ([1]; pathway analysis of gene expression): no significant modulation
- genes altered in Control cultures with no changes in LMW-DS treated cultures ([1]; two days): 67
- genes downregulated by growth factors, downregulation stronger with LMW-DS ([1]; two days): 120
- genes downregulated in control cultures, upregulated in LMW-DS treated cultures ([1]; two days): 11
- genes increased in control cultures, downregulated in LMW-DS treated cultures ([1]; two days): 4
- genes upregulated in Control cultures, upregulation stronger with LMW-DS ([1]; two days): 229
- Activation z-score ([1]; upstream regulator HGF): 3.194
- Predicted activation state relative D2 control ([1]; upstream regulator HGF): Activated relative to control
- Activation z-score ([1]; upstream regulator TGFβ1): 1.429
- Predicted activation state relative D2 control ([1]; upstream regulator TGFβ1): Activated relative to control
- Activation z-score ([1]; upstream regulator VEGF): 3.432
- Predicted activation state relative D2 control ([1]; upstream regulator VEGF): Activated relative to control
- IL-6 release ([2]; CpG 0.2 µM + IL-15, LMW-DS 60-600 µg/ml): not generally impacted
- IL-6 release ([2]; Cytostim 10 µl/ml, LMW-DS 60-600 µg/ml): not generally impacted
- IL-6 release ([2]; LPS 0.01 ng/ml, LMW-DS 60, 200, 600 µg/ml): concentration dependent and statistically significant reduction
- IL-6 release ([2]; PHA-L 1.0 µg/ml, LMW-DS 60-600 µg/ml): inhibited significantly in a concentration-dependent manner
- IL-6 release ([2]; higher concentration of CpG (1.0 µM) + IL-15, LMW-DS 60-600 µg/ml): no general impact
- IL-6 release ([2]; higher concentration of Cytostim (30 µl/ml), LMW-DS 60-600 µg/ml): no general impact
- IL-6 release ([2]; peptidoglycan 30 ng/ml, LMW-DS 60-600 µg/ml): little evidence
- IL-6 release ([2]; pokeweed mitogen 1.0 µg/ml, LMW-DS 60-600 µg/ml): not impacted generally
